≈ marks a conversion by molar mass, not a printed value.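 In this assay, cells in 96-well plates receive the compound at five concentrations for 48 hours. Endpoints are linearly interpolated between the surrounding concentrations. GI50 marks 50% less growth. Definition used: TGI = concentration required for complete inhibition of growth.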
What was measured:
Assay in all cases: NCI anticancer screen, dose series, 48 h
SF-539 CNS = test system: SF-539 CNS
MDA-MB-231 breast = test system: MDA-MB-231 breast
OVCAR-3 ovarian = test system: OVCAR-3 ovarian
OVCAR-5 ovarian = test system: OVCAR-5 ovarian
NCI-H23 lung = test system: NCI-H23 lung
NCI-H226 lung = test system: NCI-H226 lung
UACC-62 melanoma = test system: UACC-62 melanoma
SK-MEL-28 melanoma = test system: SK-MEL-28 melanoma
ACHN renal = test system: ACHN renal
MDA-MB-435 = test system: MDA-MB-435
SN12C renal = test system: SN12C renal
M14 melanoma = test system: M14 melanoma
SK-MEL-5 melanoma = test system: SK-MEL-5 melanoma
SF-268 CNS = test system: SF-268 CNS
MALME-3M melanoma = test system: MALME-3M melanoma
OVCAR-8 ovarian = test system: OVCAR-8 ovarian
HOP-62 NSCLC = test system: HOP-62 NSCLC
MCF7 breast = test system: MCF7 breast
U251 CNS = test system: U251 CNS
SK-MEL-2 melanoma = test system: SK-MEL-2 melanoma
SW-620 colon = test system: SW-620 colon
SF-295 CNS = test system: SF-295 CNS
SK-OV-3 ovarian = test system: SK-OV-3 ovarian
BT-549 breast = test system: BT-549 breast
HCT-116 colon = test system: HCT-116 colon
RPMI-8226 leukemia = test system: RPMI-8226 leukemia
CAKI-1 renal = test system: CAKI-1 renal
TK-10 renal = test system: TK-10 renal
786-0 renal = test system: 786-0 renal
NCI-H460 lung = test system: NCI-H460 lung
CCRF-CEM leukemia = test system: CCRF-CEM leukemia
PC-3 prostate = test system: PC-3 prostate
KM12 colon = test system: KM12 colon
UACC-257 melanoma = test system: UACC-257 melanoma
UO-31 renal = test system: UO-31 renal
SR leukemia = test system: SR leukemia
HOP-92 NSCLC = test system: HOP-92 NSCLC
COLO 205 colon = test system: COLO 205 colon
A498 renal = test system: A498 renal
MOLT-4 leukemia = test system: MOLT-4 leukemia
K-562 leukemia = test system: K-562 leukemia
RXF 393 renal = test system: RXF 393 renal
SNB-75 CNS = test system: SNB-75 CNS
NCI/ADR-RES ovarian = test system: NCI/ADR-RES ovarian
SNB-19 CNS = test system: SNB-19 CNS
HCC-2998 colon = test system: HCC-2998 colon
IGROV1 ovarian = test system: IGROV1 ovarian
LOX IMVI melanoma = test system: LOX IMVI melanoma
HL-60(TB) leukemia = test system: HL-60(TB) leukemia
OVCAR-4 ovarian = test system: OVCAR-4 ovarian
A549 NSCLC = test system: A549 NSCLC
HT29 colon = test system: HT29 colon
HCT-15 colon = test system: HCT-15 colon
HS 578T breast = test system: HS 578T breast
EKVX NSCLC = test system: EKVX NSCLC

In the case of `CC(=O)O[C@H]1CC[C@]2(C)[C@H]3CC=C4[C@@H]5CC(C)(C)CC[C@]5(C(=O)NCCNCCNCCN)CC[C@@]4(C)[C@]3(C)CC[C@H]2C1(C)C`, the GI50 (SF-539 CNS) is reported as 1.69 µM, the TGI (SF-539 CNS) is reported as 3.17 µM and the GI50 (MDA-MB-231 breast) is reported as 1.53 µM. It also gave a TGI (MDA-MB-231 breast) of 3.04 µM, a GI50 (OVCAR-3 ovarian) of 1.76 µM and a TGI (OVCAR-3 ovarian) of 3.24 µM. For the same molecule, the GI50 (OVCAR-5 ovarian) was 1.67 µM, the TGI (OVCAR-5 ovarian) was 3.13 µM and the GI50 (NCI-H23 lung) was 1.8 µM. The TGI (NCI-H23 lung) was 3.57 µM, the GI50 (NCI-H226 lung) was 2.18 µM and the TGI (NCI-H226 lung) was 4.99 µM. For the same molecule, the GI50 (UACC-62 melanoma) was 1.74 µM, the TGI (UACC-62 melanoma) was 3.18 µM and the GI50 (SK-MEL-28 melanoma) was 1.74 µM. It also gave a TGI (SK-MEL-28 melanoma) of 3.21 µM, a GI50 (ACHN renal) of 1.75 µM and a TGI (ACHN renal) of 3.14 µM. The GI50 (MDA-MB-435) was 1.67 µM, the TGI (MDA-MB-435) was 3.1 µM and the GI50 (SN12C renal) was 1.78 µM. For the same molecule, the TGI (SN12C renal) was 3.37 µM.

Work on `c1ccc(CSCCNCCN(CCNCCSCc2ccccc2)CCNCCSCc2ccccc2)cc1` yielded a GI50 (M14 melanoma) of 1.31 µM, a TGI (M14 melanoma) of 2.65 µM and a GI50 (SK-MEL-5 melanoma) of 1.72 µM. The TGI (SK-MEL-5 melanoma) was 3.12 µM, the GI50 (SF-268 CNS) was 1.53 µM and the TGI (SF-268 CNS) was 2.96 µM. It also gave a GI50 (MALME-3M melanoma) of 1.84 µM, a TGI (MALME-3M melanoma) of 3.41 µM and a GI50 (SF-539 CNS) of 2.14 µM. It also gave a TGI (SF-539 CNS) of 3.58 µM, a GI50 (OVCAR-8 ovarian) of 1.57 µM and a TGI (OVCAR-8 ovarian) of 3.02 µM. For the same molecule, the GI50 (MDA-MB-231 breast) was 1.56 µM, the TGI (MDA-MB-231 breast) was 2.94 µM and the GI50 (OVCAR-3 ovarian) was 4.23 µM. The TGI (OVCAR-3 ovarian) was 18.3 µM, the GI50 (OVCAR-5 ovarian) was 1.76 µM and the TGI (OVCAR-5 ovarian) was 3.19 µM. The GI50 (HOP-62 NSCLC) was 1.49 µM, the TGI (HOP-62 NSCLC) was 2.83 µM and the GI50 (MCF7 breast) was 0.363 µM. The TGI (MCF7 breast) was 0.803 µM, the GI50 (U251 CNS) was 1.52 µM and the TGI (U251 CNS) was 2.85 µM. It also gave a GI50 (SK-MEL-2 melanoma) of 1.6 µM, a TGI (SK-MEL-2 melanoma) of 3.11 µM and a GI50 (SW-620 colon) of 1.78 µM. It also gave a TGI (SW-620 colon) of 3.21 µM, a GI50 (NCI-H226 lung) of 1.78 µM and a TGI (NCI-H226 lung) of 3.28 µM. For the same molecule, the GI50 (UACC-62 melanoma) was 1.77 µM, the TGI (UACC-62 melanoma) was 3.16 µM and the GI50 (SF-295 CNS) was 4.17 µM. It also gave a TGI (SF-295 CNS) of 20.5 µM, a GI50 (SK-OV-3 ovarian) of 1.94 µM and a TGI (SK-OV-3 ovarian) of 3.43 µM. It also gave a GI50 (BT-549 breast) of 1.8 µM, a TGI (BT-549 breast) of 3.22 µM and a GI50 (HCT-116 colon) of 0.183 µM. For the same molecule, the TGI (HCT-116 colon) was 0.34 µM, the GI50 (RPMI-8226 leukemia) was 0.337 µM and the TGI (RPMI-8226 leukemia) was 1.03 µM. The GI50 (CAKI-1 renal) was 3.35 µM, the TGI (CAKI-1 renal) was 14.3 µM and the GI50 (TK-10 renal) was 1.59 µM. It also gave a TGI (TK-10 renal) of 2.94 µM, a GI50 (786-0 renal) of 1.53 µM and a TGI (786-0 renal) of 2.94 µM. For the same molecule, the GI50 (NCI-H460 lung) was 1.37 µM, the TGI (NCI-H460 lung) was 2.71 µM and the GI50 (MDA-MB-435) was 5.37 µM. For the same molecule, the TGI (MDA-MB-435) was 18.9 µM, the GI50 (CCRF-CEM leukemia) was 1.54 µM and the TGI (CCRF-CEM leukemia) was 3.06 µM. It also gave a GI50 (PC-3 prostate) of 1.66 µM, a TGI (PC-3 prostate) of 3.21 µM and a GI50 (KM12 colon) of 1.1 µM. The TGI (KM12 colon) was 2.41 µM, the GI50 (UACC-257 melanoma) was 1.77 µM and the TGI (UACC-257 melanoma) was 3.31 µM. The GI50 (UO-31 renal) was 1.78 µM, the TGI (UO-31 renal) was 3.23 µM and the GI50 (SN12C renal) was 1.44 µM. For the same molecule, the TGI (SN12C renal) was 2.77 µM.

Work on `N#Cc1cc2c(N)ncnc2nc1N1CCCC1` yielded a GI50 (M14 melanoma) of 48.4 µg/mL, a GI50 (SR leukemia) of 66.4 µg/mL (≈ 276 µM) and a GI50 (HOP-92 NSCLC) of 57.2 µg/mL (≈ 238 µM). The GI50 (SK-OV-3 ovarian) was 54.4 µg/mL, the GI50 (COLO 205 colon) was 83.6 µg/mL (≈ 348 µM) and the GI50 (BT-549 breast) was 49.3 µg/mL. For the same molecule, the GI50 (A498 renal) was 36.9 µg/mL (≈ 154 µM), the GI50 (UO-31 renal) was 45.7 µg/mL and the GI50 (MOLT-4 leukemia) was 85.2 µg/mL (≈ 355 µM).

`COc1cc(/C=C2\CCc3ccccc3C2=O)ccc1O` was tested, and the TGI (M14 melanoma) was 33.5 µM, the TGI (SK-MEL-5 melanoma) was 35.3 µM and the TGI (SF-268 CNS) was 74.1 µM. For the same molecule, the TGI (K-562 leukemia) was 79.7 µM, the TGI (SF-539 CNS) was 30.4 µM and the TGI (OVCAR-8 ovarian) was 37.1 µM. The TGI (RXF 393 renal) was 25 µM, the TGI (OVCAR-3 ovarian) was 36.1 µM and the TGI (SNB-75 CNS) was 79.1 µM. The TGI (OVCAR-5 ovarian) was 27.2 µM, the TGI (NCI/ADR-RES ovarian) was 78.8 µM and the TGI (MCF7 breast) was 23.2 µM. It also gave a TGI (U251 CNS) of 31.7 µM, a TGI (SW-620 colon) of 33.9 µM and a TGI (SR leukemia) of 48 µM. For the same molecule, the TGI (SNB-19 CNS) was 30.2 µM, the TGI (NCI-H23 lung) was 52.3 µM and the TGI (HOP-92 NSCLC) was 45.2 µM. It also gave a TGI (HCC-2998 colon) of 33.7 µM, a TGI (SK-MEL-28 melanoma) of 38.8 µM and a TGI (IGROV1 ovarian) greater than 100 µM. The TGI (SK-OV-3 ovarian) was 91.5 µM, the TGI (LOX IMVI melanoma) was 32.8 µM and the TGI (BT-549 breast) was 37.7 µM. For the same molecule, the TGI (HL-60(TB) leukemia) was 30.1 µM, the TGI (ACHN renal) was 58.1 µM and the TGI (OVCAR-4 ovarian) was 44.8 µM. It also gave a TGI (A549 NSCLC) of 53.2 µM, a TGI (RPMI-8226 leukemia) of 50.2 µM and a TGI (HT29 colon) of 32.7 µM. It also gave a TGI (CAKI-1 renal) greater than 100 µM, a TGI (TK-10 renal) of 37.8 µM and a TGI (786-0 renal) of 27.3 µM. The TGI (HCT-15 colon) was 75.7 µM, the TGI (NCI-H460 lung) was 34.4 µM and the TGI (CCRF-CEM leukemia) was greater than 100 µM. It also gave a TGI (KM12 colon) of 30.8 µM, a TGI (HS 578T breast) greater than 100 µM and a TGI (UO-31 renal) of 27.4 µM. It also gave a TGI (EKVX NSCLC) of 59 µM, a TGI (MOLT-4 leukemia) of 69.1 µM and a TGI (SN12C renal) of 49.7 µM.

Reference: PubChem BioAssay (NCI)
